Laboratory results as given in patent US20160168541A1, “TRANSDUCIBLE MATERIALS FOR CELL REPROGRAMMING” (VIVOSCRIPT, INC., priority 2013, published 2016).
“Also recorded” adds a separate entry of the source.

Columns and labels:
Format in all cases: cell-based
[1] = system: adult human fibroblasts; experiment: Reprogramming of fibroblasts to skeletal muscle progenitor cells (satellite cells, myoblasts)
Method: FIG. 4. Schematic of experimental protocol to convert fibroblasts to myoblasts with transducible materials derived from MyoD.
In this example, three versions of transducible materials derived from MyoD (the master myogenic transcription factor) were generated and their effects on reprogramming fibroblast cells into skeletal muscle progenitor cells (SMPCs) were compared.
Most myogenic analysis was performed at >2 weeks after polypeptide transduction to avoid confounding issues from added exogenous polypeptides.

[2] = system: adult human fibroblasts; experiment: Live fluorescent imaging of uptake and nuclear occupancy of sGFP polypeptides in fibroblasts; conditions: 10 μg/ml
Method: FIG. 5. Live fluorescent imaging of human fibroblasts after culturing in 10 μg/ml of first generation sGFP-MyoD-11R.
In the first generation of transducible materials, a sGFP transduction domain and a poly-arginine (11R) were fused to the N-terminus and C-terminus of MyoD through a linker (SEQ ID NO: 99) respectively to generate sGFP-MyoD-11R (SEQ ID NO: 156). […] The nuclear entry of sGFP-MyoD-11R was increased by using 100 μg/ml sGFP-MyoD-11R and electroporation, which successful reprogrammed very low percentage (around 10%) of FBs to MyoD+ myoblasts.
The second generation of transducible materials, a strong classic nuclear localization sequence (cNLS), the SV40 T antigen NLS, was added in-between sGFP and MyoD-11R (SEQ ID NO: 157 and FIG. 3).
Leptomycin B (leptoB), a nuclear export blocker, was added at 5 nM to adult fibroblasts to enhance nuclear occupancy of sGFP-NLS-MyoD-11R. […] Higher concentrations of leptoB might have off-target effects, which limits its use in enhancing nuclear retention of specific polypeptides.
In the third generation of transducible materials, the NES of MyoD was mutated to generate sGFP-NLS-MyoD(mNES)-11R (SEQ ID NO: 127 and FIG. 3) to further improve their nuclear occupancy and transcription efficiency. […] These SCs were positive for Myf5 (>90% of SCs) at 22 days after transduction (FIG. 8B). Also, these SCs could be induced to differentiate to myoblasts with downregulation of Pax7 and upregulation of MyoD via a published myogenic protocol (Cosgrove et al, Rejuvenation of the muscle stem cell population restores strength to injured aged muscles, Nat Med., 20:255-64 (2014)). […] Thus, by using sGFP-NLS-MyoD(mNES)-11R, efficient fibroblasts conversion to SMPCs can be achieved in a controlled fashion. The risk of extensive durations of MyoD activation is completely avoided. Most myogenic analysis was performed at >2 weeks after polypeptide transduction to avoid confounding issues from added exogenous polypeptides. In summary, adult fibroblast can be successfully reprogrammed to SCs using sGFP-NLS-MyoD(mNES)-11R with defined kinetics (2-day nuclear occupancy and 2-3 week peptide lifespan).

[3] = system: Oct4 target genes (Oct4, Sox2, Nanog, Smad3 and Smad4); experiment: RT-qPCR of Oct4 target genes in HepG2 cells treated with transducible materials; conditions: serum-free medium, 6 hours, normalized by GAPDH, sGFP-treated sample set as 1.00
Method: FIG. 2. Comparison of sGFP-Oct4(mNES) and sGFP-Oct4 protein in regulating the expression of downstream genes. HepG2 cells were treated with sGFP, sGFP-Oct4 or sGFP-Oct4(mNES) in serum-free medium for 6 hours. RNA was isolated and RT-qPCR was performed. The expression of each gene was normalized by the expression level of GAPDH. The relative expression level of each gene in the control condition (sGFP-treated sample) was set as 1.00.
HepG2 cells were treated with transducible materials comprising isolated polypeptide of sGFP, sGFP-Oct4-11R or sGFP-Oct4(mNES)-11R in serum-free medium for 6 hours. RNA was extracted from each sample using RNeasy Micro Kit from Qiagen and cDNA was synthesized through reverse transcription reaction. RT-qPCRs of five Oct4 target genes (Oct4, Sox2, Nanog, Smad3 and Smad4 were performed using a pair of primers specific to each target gene and a hydrolysis probe from Roche Universal ProbeLibrary on LightCycler 480 II. The expression of each gene was normalized by the expression level of GAPDH. The relative expression level of each gene in the control condition (sGFP-treated sample) was set as 1.00.

| Substance | reprogramming of fibroblasts to SMPCs ([1]; 10 μg/ml, no leptomycin B) | reprogramming efficiency of adult fibroblasts to SMPCs ([1]; continuous presence of leptomycin B 5 nM) | time the polypeptide stays in the nucleus ([2]; leptomycin B 5 nM) [h] | nuclear occupancy (GFP signal in nuclei) with leptomycin B ([2]; leptomycin B 5 nM, third generation at 30 min, 24 hours and 48 hours) | nuclear occupancy (localization of GFP signal) ([2]; no leptomycin B) | change of nuclear occupancy with time ([2]; no leptomycin B, 24 hours) | expression of Oct4 target genes [3] |
| --- | --- | --- | --- | --- | --- | --- | --- |
| sGFP-NLS-MyoD-11R: Second generation: SV40 T antigen NLS added between sGFP and MyoD-11R, SEQ ID NO: 157 | low and inconsistent | around 5% | > 24 | slightly improves the nuclear occupancy | more transducible materials were observed in nuclei; also recorded: GFP signal were observed in the nuclei | significantly decreased within 24 hours; also recorded: GFP signal in the nuclei decreased after 24 hours | – |
| sGFP-Oct4-11R: Fusion polypeptide of supercharged GFP, Oct4 and 11R, SEQ ID NO: 155, unmutated NES | – | – | – | – | – | – | does not increase |
